Measurements taken from PubChem BioAssay (NCI).
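Cultured in 96-well plates, cells were exposed to test compound for 48 hours across five concentrations. GI50 marks 50% less growth. TGI: total growth inhibition.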

Legend:
Experiment in all cases: NCI tumour cell line growth inhibition, 48 h
SF-539 CNS = tested on: SF-539 CNS
UACC-257 melanoma = tested on: UACC-257 melanoma
HCT-116 colon = tested on: HCT-116 colon
HCT-15 colon = tested on: HCT-15 colon
COLO 205 colon = tested on: COLO 205 colon
SF-295 CNS = tested on: SF-295 CNS
SN12C renal = tested on: SN12C renal
RPMI-8226 leukemia = tested on: RPMI-8226 leukemia
SF-268 CNS = tested on: SF-268 CNS
MALME-3M melanoma = tested on: MALME-3M melanoma
IGROV1 ovarian = tested on: IGROV1 ovarian
DLD-1 colon = tested on: DLD-1 colon
NCI/ADR-RES ovarian = tested on: NCI/ADR-RES ovarian
NCI-H23 lung = tested on: NCI-H23 lung
SK-MEL-5 melanoma = tested on: SK-MEL-5 melanoma
SNB-78 CNS = tested on: SNB-78 CNS
OVCAR-4 ovarian = tested on: OVCAR-4 ovarian
KM12 colon = tested on: KM12 colon
HT29 colon = tested on: HT29 colon
RXF 393 renal = tested on: RXF 393 renal
SK-MEL-2 melanoma = tested on: SK-MEL-2 melanoma
CAKI-1 renal = tested on: CAKI-1 renal
MCF7 breast = tested on: MCF7 breast
UACC-62 melanoma = tested on: UACC-62 melanoma
CCRF-CEM leukemia = tested on: CCRF-CEM leukemia
MOLT-4 leukemia = tested on: MOLT-4 leukemia
HL-60(TB) leukemia = tested on: HL-60(TB) leukemia
SNB-75 CNS = tested on: SNB-75 CNS
NCI-H460 lung = tested on: NCI-H460 lung
DMS 273 small cell lung = tested on: DMS 273 small cell lung
OVCAR-5 ovarian = tested on: OVCAR-5 ovarian
P388/ADR leukemia = tested on: P388/ADR leukemia
HOP-62 NSCLC = tested on: HOP-62 NSCLC
SNB-19 CNS = tested on: SNB-19 CNS
XF 498 CNS = tested on: XF 498 CNS
KM20L2 colon = tested on: KM20L2 colon
SK-OV-3 ovarian = tested on: SK-OV-3 ovarian
HOP-18 NSCLC = tested on: HOP-18 NSCLC
OVCAR-8 ovarian = tested on: OVCAR-8 ovarian
NCI-H522 lung = tested on: NCI-H522 lung
SW-620 colon = tested on: SW-620 colon
SN12K1 renal = tested on: SN12K1 renal
SK-MEL-28 melanoma = tested on: SK-MEL-28 melanoma
UO-31 renal = tested on: UO-31 renal
LOX IMVI melanoma = tested on: LOX IMVI melanoma
NCI-H226 lung = tested on: NCI-H226 lung
HCC-2998 colon = tested on: HCC-2998 colon
OVCAR-3 ovarian = tested on: OVCAR-3 ovarian
K-562 leukemia = tested on: K-562 leukemia
A498 renal = tested on: A498 renal
HOP-92 NSCLC = tested on: HOP-92 NSCLC
EKVX NSCLC = tested on: EKVX NSCLC
U251 CNS = tested on: U251 CNS
A549 NSCLC = tested on: A549 NSCLC
P388 leukemia = tested on: P388 leukemia

In the case of `NC1CCCCC1N.Nc1c(N=Nc2ccc(-c3ccc(N=Nc4cc(S(=O)(=O)[O-])c5ccccc5c4N)cc3)cc2)cc(S(=O)(=O)[O-])c2ccccc12.[OH3+].[OH3+].[Pt+4]`, the GI50 (SF-539 CNS) was > 100 µM, the TGI (SF-539 CNS) was > 100 µM and the GI50 (UACC-257 melanoma) was 18.1 µM. For the same compound, the TGI (UACC-257 melanoma) was 34.7 µM, the GI50 (HCT-116 colon) was > 96.1 µM and the TGI (HCT-116 colon) was > 100 µM. For the same compound, the GI50 (HCT-15 colon) was > 43.3 µM, the TGI (HCT-15 colon) was > 59.6 µM and the GI50 (COLO 205 colon) was 17.1 µM. For the same compound, the TGI (COLO 205 colon) was 32.9 µM, the GI50 (SF-295 CNS) was > 100 µM and the TGI (SF-295 CNS) was > 100 µM. The GI50 (SN12C renal) was > 56.9 µM, the TGI (SN12C renal) was > 100 µM and the GI50 (RPMI-8226 leukemia) was 25.2 µM. The TGI (RPMI-8226 leukemia) was 66.3 µM, the GI50 (SF-268 CNS) was > 78.6 µM and the TGI (SF-268 CNS) was > 100 µM. For the same compound, the GI50 (MALME-3M melanoma) was 15.4 µM, the TGI (MALME-3M melanoma) was 22.2 µM and the GI50 (IGROV1 ovarian) was 48.5 µM. For the same compound, the TGI (IGROV1 ovarian) was > 100 µM, the GI50 (DLD-1 colon) was 21.1 µM and the TGI (DLD-1 colon) was 43.5 µM. The GI50 (NCI/ADR-RES ovarian) was 20.9 µM, the TGI (NCI/ADR-RES ovarian) was 43 µM and the GI50 (NCI-H23 lung) was 67.9 µM. The TGI (NCI-H23 lung) was > 100 µM, the GI50 (SK-MEL-5 melanoma) was 33 µM and the TGI (SK-MEL-5 melanoma) was > 83.9 µM. The GI50 (SNB-78 CNS) was > 76.5 µM, the TGI (SNB-78 CNS) was > 100 µM and the GI50 (OVCAR-4 ovarian) was 35.3 µM. For the same compound, the TGI (OVCAR-4 ovarian) was > 93 µM, the GI50 (KM12 colon) was > 60.5 µM and the TGI (KM12 colon) was > 100 µM. The GI50 (HT29 colon) was 20.1 µM, the TGI (HT29 colon) was 38.8 µM and the GI50 (RXF 393 renal) was 20.3 µM. The TGI (RXF 393 renal) was 68.5 µM, the GI50 (SK-MEL-2 melanoma) was 45.6 µM and the TGI (SK-MEL-2 melanoma) was > 100 µM. For the same compound, the GI50 (CAKI-1 renal) was > 39.9 µM, the TGI (CAKI-1 renal) was > 56.9 µM and the GI50 (MCF7 breast) was 30.9 µM. For the same compound, the TGI (MCF7 breast) was > 100 µM, the GI50 (UACC-62 melanoma) was 61.4 µM and the TGI (UACC-62 melanoma) was > 100 µM. The GI50 (CCRF-CEM leukemia) was 29.2 µM, the TGI (CCRF-CEM leukemia) was > 79.3 µM and the GI50 (MOLT-4 leukemia) was 21.1 µM. It also gave a TGI (MOLT-4 leukemia) of 54.6 µM, a GI50 (HL-60(TB) leukemia) of 21.2 µM and a TGI (HL-60(TB) leukemia) of 50.9 µM. The GI50 (SNB-75 CNS) was > 77.2 µM, the TGI (SNB-75 CNS) was > 100 µM and the GI50 (NCI-H460 lung) was 40 µM. For the same compound, the TGI (NCI-H460 lung) was > 100 µM, the GI50 (DMS 273 small cell lung) was 59.2 µM and the TGI (DMS 273 small cell lung) was > 100 µM. The GI50 (OVCAR-5 ovarian) was > 100 µM, the TGI (OVCAR-5 ovarian) was > 100 µM and the GI50 (P388/ADR leukemia) was 22.6 µM. For the same compound, the TGI (P388/ADR leukemia) was > 62 µM, the GI50 (HOP-62 NSCLC) was > 100 µM and the TGI (HOP-62 NSCLC) was > 100 µM. The GI50 (SNB-19 CNS) was > 100 µM, the TGI (SNB-19 CNS) was > 100 µM and the GI50 (XF 498 CNS) was 20.4 µM. For the same compound, the TGI (XF 498 CNS) was 42 µM, the GI50 (KM20L2 colon) was > 100 µM and the TGI (KM20L2 colon) was > 100 µM. For the same compound, the GI50 (SK-OV-3 ovarian) was > 100 µM, the TGI (SK-OV-3 ovarian) was > 100 µM and the GI50 (HOP-18 NSCLC) was 24.5 µM. For the same compound, the TGI (HOP-18 NSCLC) was 53.3 µM, the GI50 (OVCAR-8 ovarian) was 26.8 µM and the TGI (OVCAR-8 ovarian) was > 68.1 µM. It also gave a GI50 (NCI-H522 lung) of 19.6 µM, a TGI (NCI-H522 lung) of 37.9 µM and a GI50 (SW-620 colon) of 25.2 µM. For the same compound, the TGI (SW-620 colon) was 49.4 µM, the GI50 (SN12K1 renal) was 27.3 µM and the TGI (SN12K1 renal) was > 58.2 µM. The GI50 (SK-MEL-28 melanoma) was 22 µM, the TGI (SK-MEL-28 melanoma) was 42.2 µM and the GI50 (UO-31 renal) was > 100 µM. The TGI (UO-31 renal) was > 100 µM, the GI50 (LOX IMVI melanoma) was > 52.2 µM and the TGI (LOX IMVI melanoma) was > 80.7 µM. The GI50 (NCI-H226 lung) was > 52.6 µM, the TGI (NCI-H226 lung) was > 100 µM and the GI50 (HCC-2998 colon) was > 90.9 µM. For the same compound, the TGI (HCC-2998 colon) was > 100 µM, the GI50 (OVCAR-3 ovarian) was 42.8 µM and the TGI (OVCAR-3 ovarian) was > 60.1 µM. For the same compound, the GI50 (K-562 leukemia) was 25 µM, the TGI (K-562 leukemia) was 64.2 µM and the GI50 (A498 renal) was > 100 µM. The TGI (A498 renal) was > 100 µM, the GI50 (HOP-92 NSCLC) was 14.2 µM and the TGI (HOP-92 NSCLC) was 19.9 µM. For the same compound, the GI50 (EKVX NSCLC) was 33.8 µM, the TGI (EKVX NSCLC) was 81.7 µM and the GI50 (U251 CNS) was > 100 µM. For the same compound, the TGI (U251 CNS) was > 100 µM, the GI50 (A549 NSCLC) was > 76.5 µM and the TGI (A549 NSCLC) was > 100 µM. It also gave a GI50 (P388 leukemia) of 26.3 µM and a TGI (P388 leukemia) of 90.5 µM.
